Results published in US12396459B2, “Synergistically effective herbicide composition comprising pyridate and at least one defined 4-HPPD inhibitor” (BELCHIM CROP PROTECTION NV, priority 2018, dated 2025).

How the values were obtained:
Type in all cases: in vivo
Lamium purpureum = assay: Field trial post-emergence in maize: LAMPU
Protocol: (§1) Herbicidal activity of herbicide compositions according to the first aspect of the present invention with regard to different types of unwanted vegetation was determined during trials performed on test fields (field trials). Individual compositions comprising pyridate and individual compositions comprising a defined 4-HPPD inhibitor are compared with a herbicide composition according to the invention comprising both pyridate and a defined 4-HPPD inhibitor. The expected activity of the combination of the active compounds pyridate and a defined 4-HPPD inhibitor is calculated according to above mentioned calculation method by Colby, in order to evaluate a synergistic effect between pyridate and a defined 4-HPPD inhibitor.
(§2) Herbicidal activity was determined by applying herbicide compositions on emerged unwanted vegetation on fields where maize was cultivated. Pyridate and a defined 4-HPPD inhibitor were applied as a tank mixture by mixing these active compounds prior to use in a spray tank. The corresponding mixture was in the form of a spray liquor. Besides, spray liquors of individual compositions comprising pyridate and of individual compositions comprising a defined 4-HPPD inhibitor were used. Test plants of unwanted vegetation with a growth stage corresponding to BBCH 10-18 (according to the extended BBCH-scale) were sprayed with the active compound preparations such that particular desired amounts of active compounds are applied per unit area. Spray liquor was diluted with water to arrive at an application volume of 50 to 450 L/ha. At a specified number of days after application (DAA), the degree of damage to the unwanted vegetation is rated in % of plants of unwanted vegetation that were killed, which was assessed by visually controlling the plants.
(§3) Example 1 concerns a herbicide composition comprising a combination of pyridate and mesotrione, which was applied post-emergence on unwanted vegetation on a field where maize was cultivated, according to the test conditions mentioned above.

Xanthium spinosum = assay: Field trial post-emergence in maize: XANSP; conditions: 7-14 DAA; # = 3; g a.c./ha: PYR 300, MES 100, PYR + MES 300 + 90
Protocol: as §1
Herbicidal activity was determined by applying herbicide compositions on emerged unwanted vegetation on fields where maize was cultivated. Pyridate and a defined 4-HPPD inhibitor were applied as a tank mixture by mixing these active compounds prior to use in a spray tank. The corresponding mixture was in the form of a spray liquor. […] At a specified number of days after application (DAA), the degree of damage to the unwanted vegetation is rated in % of plants of unwanted vegetation that were killed, which was assessed by visually controlling the plants.

Kickxia elatine = assay: Field trial post-emergence in maize: KICEL
Protocol: as §1, §2, §3

[1] = tested on: unwanted vegetation (UVEG); assay: Field trials Examples 1-5 (incl. Table 1), post-emergence on unwanted vegetation in maize; conditions: 14-20 DAA
Protocol: as §1, §2

Convolvulus arvensis = assay: Field trial post-emergence in maize: CONAR
Protocol: as §1, §2, §3

Veronica persica = assay: Field trial post-emergence in maize: VERPE; conditions: for herbicidal effect (h.e.): g a.c./ha: PYR 300, MES 100, PYR + MES 300 + 90
Protocol: as §1, §2

Setaria verticillata = assay: Field trial post-emergence in maize: SETVE
Protocol: as §1, §2, §3

Brassica napus = assay: Field trial post-emergence in maize: BRSNN; conditions: # = 1, g a.c./ha: PYR 300, MES 100, PYR + MES 300 + 90
Protocol: as §1, §2

Rumex obtusifolius = assay: Field trial post-emergence in maize: RUMOB
Protocol: as §1, §2, §3

Polygonum aviculare = assay: Field trial post-emergence in maize: POLAV
Protocol: as §1, §2, §3

[2] = tested on: Brassica rapa Canola cultivars; assay: Field trial post-emergence in maize: BRSRC; conditions: 13-14 DAA; # = 1; g a.c./ha: PYR 450, MES 144, PYR + MES 450 + 144
Protocol: as §1, §2

Portulaca oleracea = assay: Field trial post-emergence in maize: POROL; conditions: # = 1, g a.c./ha: PYR 300, MES 100, PYR + MES 300 + 90
Protocol: as §1, §2

Papaver rhoeas = assay: Field trial post-emergence in maize: PAPRH; conditions: # = 1, g a.c./ha: PYR 300, MES 100, PYR + MES 300 + 90
Protocol: as §1, §2

Fallopia convolvulus = assay: Field trial post-emergence in maize: POLCO
Protocol: as §1, §2

Viola arvensis = assay: Field trial post-emergence in maize: VIOAR
Protocol: as §1, §2, §3

Persicaria maculosa = assay: Field trial post-emergence in maize: POLPE; conditions: for herbicidal effect (h.e.): g a.c./ha: PYR 300, MES 100, PYR + MES 300 + 90
Protocol: as §1, §2

CS(=O)(=O)c1ccc(C(=O)C2C(=O)CCCC2=O)c([N+](=O)[O-])c1 [MES, 2-(4-methylsulfonyl-2-nitrobenzoyl) cyclohexane-1,3-dione]
MES h.e. (Lamium purpureum; LAMPU 14-20 DAA 45 g a.c./ha): 93% | MES h.e. (Lamium purpureum; LAMPU 14-20 DAA 90 g a.c./ha): 98% | MES h.e. (Lamium purpureum; LAMPU 14-20 DAA 135 g a.c./ha): 99% | MES h.e. (Lamium purpureum; LAMPU 24-31 DAA 45 g a.c./ha): 89% | MES h.e. (Lamium purpureum; LAMPU 24-31 DAA 90 g a.c./ha): 95% | herbicidal effect (h.e.) (Xanthium spinosum): 97% | MES h.e. (Kickxia elatine; KICEL 14-20 DAA 45 g a.c./ha): 0% | MES h.e. (Kickxia elatine; KICEL 14-20 DAA 90 g a.c./ha): 8% | MES h.e. (Kickxia elatine; KICEL 14-20 DAA 135 g a.c./ha): 0% | MES h.e. (Kickxia elatine; KICEL 24-31 DAA 45 g a.c./ha): 0% | MES h.e. (Kickxia elatine; KICEL 24-31 DAA 90 g a.c./ha): 0% | MES h.e. (Kickxia elatine; KICEL 24-31 DAA 135 g a.c./ha): 0% | MES h.e. (%) ([1]; VIOAR (Viola arvensis), # = 3, first VIOAR block (r259-264), MES 135 g a.c./ha): 98% | MES h.e. (%) ([1]; VIOAR, # = 3, second VIOAR block (r265-272), MES 45 g a.c./ha): 70% | MES h.e. (%) ([1]; VIOAR, # = 3, second VIOAR block (r265-272), MES 90 g a.c./ha): 84% | MES h.e. (%) ([1]; VIOAR, # = 3, second VIOAR block (r265-272), MES 135 g a.c./ha): 87% | MES h.e. (Convolvulus arvensis; CONAR 14-20 DAA 45 g a.c./ha): 40% | MES h.e. (Convolvulus arvensis; CONAR 14-20 DAA 90 g a.c./ha): 68% | MES h.e. (Convolvulus arvensis; CONAR 14-20 DAA 135 g a.c./ha): 83% | MES h.e. (Convolvulus arvensis; CONAR 24-31 DAA 135 g a.c./ha): 80% | herbicidal effect (h.e.) (Veronica persica; 7-14 DAA, # = 4): 91% | herbicidal effect (h.e.) (Veronica persica; 31-48 DAA, # = 5): 93% | MES h.e. (Veronica persica; VERPE 14-20 DAA 45 g a.c./ha): 20% | MES h.e. (Veronica persica; VERPE 14-20 DAA 90 g a.c./ha): 75% | MES h.e. (Veronica persica; VERPE 14-20 DAA 135 g a.c./ha): 70% | MES h.e. (Veronica persica; VERPE 24-31 DAA 45 g a.c./ha): 10% | MES h.e. (Veronica persica; VERPE 24-31 DAA 90 g a.c./ha): 55% | MES h.e. (Veronica persica; VERPE 24-31 DAA 135 g a.c./ha): 60% | MES h.e. (Setaria verticillata; SETVE 14-20 DAA 45 g a.c./ha): 21% | MES h.e. (Setaria verticillata; SETVE 14-20 DAA 90 g a.c./ha): 41% | MES h.e. (Setaria verticillata; SETVE 14-20 DAA 135 g a.c./ha): 55% | MES h.e. (Setaria verticillata; SETVE 24-31 DAA 45 g a.c./ha): 31% | MES h.e. (Setaria verticillata; SETVE 24-31 DAA 90 g a.c./ha): 37% | MES h.e. (Setaria verticillata; SETVE 24-31 DAA 135 g a.c./ha): 58% | herbicidal effect (h.e.) (Brassica napus; 7-14 DAA): 86% | herbicidal effect (h.e.) (Brassica napus; 18-28 DAA): 85% | herbicidal effect (h.e.) (Brassica napus; 31-48 DAA): 84% | MES h.e. (Rumex obtusifolius; RUMOB 14-20 DAA 45 g a.c./ha): 87% | MES h.e. (Rumex obtusifolius; RUMOB 14-20 DAA 90 g a.c./ha): 95% | MES h.e. (Rumex obtusifolius; RUMOB 14-20 DAA 135 g a.c./ha): 95% | MES h.e. (Polygonum aviculare; POLAV 14-20 DAA 45 g a.c./ha): 61% | MES h.e. (Polygonum aviculare; POLAV 14-20 DAA 90 g a.c./ha): 76% | MES h.e. (Polygonum aviculare; POLAV 24-31 DAA 90 g a.c./ha): 58% | herbicidal effect (h.e.) [2]: 88% | herbicidal effect (h.e.) (Portulaca oleracea; 7-14 DAA): 50% | herbicidal effect (h.e.) (Portulaca oleracea; 18-28 DAA): 5% | herbicidal effect (h.e.) (Papaver rhoeas; 18-28 DAA): 80% | herbicidal effect (h.e.) (Papaver rhoeas; 31-48 DAA): 89% | herbicidal effect (h.e.) (Fallopia convolvulus; 7-14 DAA, # = 5, g a.c./ha: PYR 300, MES 100, PYR + MES 300 + 90): 68% | herbicidal effect (h.e.) (Fallopia convolvulus; 13-14 DAA, # = 1, g a.c./ha: PYR 450, MES 144, PYR + MES 450 + 144): 92% | herbicidal effect (h.e.) (Fallopia convolvulus; 18-28 DAA, # = 8, g a.c./ha: PYR 300, MES 100, PYR + MES 300 + 90): 77% | herbicidal effect (h.e.) (Fallopia convolvulus; 31-48 DAA, # = 8, g a.c./ha: PYR 300, MES 100, PYR + MES 300 + 90): 68% | MES h.e. (Fallopia convolvulus; POLCO 14-20 DAA 45 g a.c./ha): 77% | MES h.e. (Fallopia convolvulus; POLCO 14-20 DAA 90 g a.c./ha): 89% | MES h.e. (Fallopia convolvulus; POLCO 24-31 DAA 45 g a.c./ha): 80% | MES h.e. (Fallopia convolvulus; POLCO 24-31 DAA 135 g a.c./ha): 97% | MES h.e. (Viola arvensis; VIOAR 14-20 DAA 45 g a.c./ha): 84% | MES h.e. (Viola arvensis; VIOAR 14-20 DAA 90 g a.c./ha): 95% | MES h.e. (Viola arvensis; VIOAR 14-20 DAA 135 g a.c./ha): 98% | herbicidal effect (h.e.) (Persicaria maculosa; 7-14 DAA, # = 3): 91% | herbicidal effect (h.e.) (Persicaria maculosa; 31-48 DAA, # = 4): 89% | MES h.e. (Persicaria maculosa; POLPE 14-20 DAA 45 g a.c./ha): 83% | MES h.e. (Persicaria maculosa; POLPE 14-20 DAA 90 g a.c./ha): 98% | MES h.e. (Persicaria maculosa; POLPE 14-20 DAA 135 g a.c./ha): 98% | MES h.e. (Persicaria maculosa; POLPE 24-31 DAA 45 g a.c./ha): 93%
